Here are results for 1 molecule from patent US20210290597A1, “METHOD OF TREATING A CONDITION ASSOCIATED WITH NEURODEGENERATION USING INHIBITORS OF OAT3” (Neuropore Therapies, Inc., priority 2018, published 2021).

The subject of assay [1] is monomeric ASYN. In words: Monomeric ASYN in brain homogenates, L61 ASYN transgenic mice (ProteinSimple western). The class given is in vivo. To be noted: 1, 5 or 10 mg/kg per day i.p., 1 month. The procedure: Multiple in vivo administration studies of Compound 1 were carried out in the Line 61 (L61) mThy1-alpha-synuclein transgenic mouse model of Parkinson's disease (PD). The mThy1-alpha-synuclein transgenic mouse model overexpresses wild-type human ASYN under the Thy-1 promoter (commonly referred to as Line 61 transgenic mice; Rockenstein et al., 2002). […]
Alpha-synuclein (ASYN) is a neuronal protein whose dysregulation has been implicated in the pathogenesis of PD. The effects of Compound 1 on alpha-synuclein aggregation were assessed in both L61 ASYN transgenic and non-transgenic mice in a 1 month administration study. […] At the end of one month, the mice were sacrificed, and immunohistochemical (IHC) detection of total alpha-synuclein deposits, insoluble alpha-synuclein deposits (PK+resistant), microtubule-associated protein 1A/1B-light chain 3 (LC3), and monomeric alpha-synuclein levels were assessed in the harvested brain tissues.
Biochemical evaluations were conducted using a ProteinSimple© western biochemical evaluation. Briefly, samples were mixed with pre-calculated volumes of 0.1× Sample Buffer and 5× Fluorescent Master Mix to make a final sample concentration of 0.4 mg/mL in 10 μL solution for signal optimization and evaporation reduction. […]

Assay [2] concerns amyloid beta. Nature of the assay: Amyloid beta staining (6E10), L41 APP transgenic mice. Format: in vivo. As to conditions: 5 mg/kg daily i.p. The procedure: As described earlier, Line 41 transgenic mice express high levels of the mutant hAPP751 and develop mature plaques in the cortex, hippocampus, thalamus and olfactory region of mouse brain. The effects of Compound 1 on Amyloid beta plaque formation were assessed in both L41 APP transgenic and non-transgenic mice in a 1 month administration study. After 30 days, the mice were sacrificed, and immunofluorescence (IF) detection of amyloid beta were assessed in the harvested brain tissues.
The harvested brain tissues were drop fixed using 4% PFA and sectioned on a vibratome, and representative sections containing the neuropil of cortex, hippocampus and striatum were assessed for amyloid beta with standard IHC staining.
On approximately day 30, all subjects were euthanized within 2 hours of the last treatment and brain and other samples were collected. Brains were removed and divided sagitally. […]
Prepared slides were imaged at 40× using a high-resolution Hamamatsu Nanozoomer™ scanner located in the Microscopy Core in the UCSD Department of Neurosciences. Digital images were then transferred to Neuropore and analyzed using the Halo® imaging software package (Indica Labs, Corrales, N. Mex.). […] Images were evaluated for specimen and imaging problems and any issues were noted prior to unblinding of samples and statistical analyses.

For the molecule `O=S(=O)(c1ccc(-n2cn[nH]c2=S)cc1)c1ccc(Cl)c(C(F)(F)F)c1` [Compound 1, 4-(4-((4-chloro-3-(trifluoromethyl)phenyl)sulfonyl)phenyl)-2,4-dihydro-3H-1,2,4-triazole-3-thione], the “cortical and hippocampal levels of monomeric ASYN in cytosolic fraction of brain homogenates” value in assay [1] is reported as “reduced”. For the same molecule, the “amyloid beta level vs vehicle-treated Line 41 mice” value in assay [2] is “reduces the amyloid beta level in a statistically significant manner”.
